Reference: US5989846A, “Assays to identify inducers of plant defense resistance” (Rutgers, The State University of New Jersey, priority 1995, dated 1999)

Columns and labels:
[1] = tested on: H2 O2; experiment: Abundance of H2O2 in treated tobacco leaves; format: in vivo; settings: FIG. 11
Excerpt: The abundance of H2 O2 increased in SA- or 3AT-treated tobacco leaves by 50-60% over the control levels observed in water-treated leaves. […] Thus, elevated levels of H2 O2, and in turn, enhanced oxidative stress in vivo, were consistent with inhibition of catalase activity by SA observed in vitro.

[2] = tested on: resistance or PR gene expression; parameters: key: ++: indicates a high level of biological activity; +: indicates a lower level of biological activity; ±: indicates low, but detectable biological activity in some assays; -: indicates no biological activity; settings: Table 3; values reported in literature; cited from earlier work
[3] = tested on: catalases from non-plant sources; experiment: Inhibition of non-plant catalases by salicylic acid; format: biochemical; settings: catalases from fungi and animals
Excerpt: Genes or cDNA copies for several of these catalases have been cloned (e.g. Scandalios, J. G. et al., Proc. Natl. Acad. Sci. USA, 77 (1980) 5360-5364; Bell, G. I. et al., Nucleic Acids Res., 14, (1986), 5561-5562; Hartig, A. et al., Eur. J. Biochem, 160, (1986) 487-490). A gene encoding one of these catalases can be introduced and expressed in a plant in the sense orientation using appropriate regulatory sequences (e.g. CaMV 35S promoter and nopaline synthase cleavage and polyadenylation signal) and vectors (e.g. PCGN 1540 or pCIB3064) as described in Example 25.

[4] = biological target: T1, catalase activity of SABP (Nicotiana tabacum, UniProt P49319); experiment: Catalase activity of highly purified SABP (luminol method); format: biochemical, tobacco; settings: 0.05 h; 1 mM SA or analogue, 1 mM H2O2, 500 ng highly purified SABP
T1 sequence (P49319 1-492): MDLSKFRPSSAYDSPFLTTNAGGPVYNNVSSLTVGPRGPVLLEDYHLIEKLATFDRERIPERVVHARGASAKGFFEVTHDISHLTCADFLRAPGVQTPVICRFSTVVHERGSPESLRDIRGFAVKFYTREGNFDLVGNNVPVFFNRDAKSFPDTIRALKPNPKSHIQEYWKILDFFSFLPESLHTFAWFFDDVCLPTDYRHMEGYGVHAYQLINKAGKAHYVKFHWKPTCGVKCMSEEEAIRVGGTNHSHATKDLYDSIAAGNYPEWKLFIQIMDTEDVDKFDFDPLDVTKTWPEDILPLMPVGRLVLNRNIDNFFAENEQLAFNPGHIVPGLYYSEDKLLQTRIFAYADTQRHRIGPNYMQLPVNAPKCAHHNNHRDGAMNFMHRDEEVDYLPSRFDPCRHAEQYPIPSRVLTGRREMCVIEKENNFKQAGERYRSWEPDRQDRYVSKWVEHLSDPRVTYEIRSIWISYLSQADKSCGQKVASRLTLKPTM
Outline: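 H2O2 remaining was sampled every 30 s from purified SABP reactions, with or without SA or analogues. Measured by luminol chemiluminescence triggered by 0.5 mM K3Fe(CN)6 in 0.2N NH4OH, pH 9.5, and quantified against an H2O2 standard curve; first-order rate constants calculated.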

[5] = tested on: salicylic acid binding protein; experiment: Competitive [14C] salicylic acid binding assay (spin-column); parameters: species or system tobacco; settings: [14C] salicylic acid 20 μM
Outline: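 Plant-fractionated binding protein incubated 2 hr at 4 °C with 5 μM-20 μM [14C]salicylic acid, with analogues added to the mixture as competitors. Bound ligand separated from free by spin-column gel exclusion (6 kDa limit) and counted; binding activity compared with analogue-free controls.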

[6] = biological target: cucumber salicylic acid binding protein; experiment: Salicylic acid binding activity from cucumber; settings: cucumber derived salicylic acid binding protein
Excerpt: Several, of the MAbs that bind to the tobacco 57 kDa protein and 280 kDa complex also recognize a 57 kDa protein in fresh homogenates from cucumbers. The salicylic acid binding activity from cucumber has similar affinity (Kd) and specificity as the tobacco salicylic acid binding protein. Like the tobacco salicylic acid binding protein, the cucumber salicylic acid binding protein also has a large native molecular weight (approximately 200 kDa). Thus, it appears that the cucumber salicylic acid binding protein is also a complex composed of multiple subunits at least one of which is probably the 57 kDa protein recognized by the MAbs made against the tobacco salicylic acid binding protein. It should be noted, however, that there may be some minor variation in molecular weight and Kd for salicylic acid binding protein from one plant species to the next. For example, cucumber derived salicylic acid binding protein appears to have an apparent average native molecular weight of about 200 kDa and a Kd of about 30±5 μM.

O=C(O)c1ccccc1O [salicylic acid, 2-hydroxybenzoic acid]
Increase in abundance of H2O2 over water-treated leaves [1]: 50-60%
Biological activity [2]: ++
Sensitivity of non-plant catalases to inhibition [3]: insensitive to inhibition
inhibition at 1000 µM [4]: 80%
Inhibition (%) 2× ([5]; 40 μM (2×) unlabeled competitor): 50%
Inhibition (%) 10× ([5]; 200 μM (10×) unlabeled competitor): 91%
Kd [6]: ~30 µM
